Bridge positions count the residues as written; N and C are the ends. Peptide text beside a SMILES is read from it.
Key:
[1] = Circular dichroism spectra, alpha-helical structure in solution; type: physicochemical
Description: The circular dichroism (CD) spectra of MCT-I and salmon calcitonin (designated "SCT-I", available from Armour Pharmaceuticals, Kankakee, IL and used without further purification) from 250 nm to 205 nm show minima at 222 nm and 208 nm characteristic of α-helical structure. For MCT-I, the mean residue molar ellipticity at 222 nm, [θ]222, was -7,800 deg.cm^2 /dmol (10^-4 M peptide, 0.02M sodium phosphate buffer, 0.16M KCl, pH 7.4), from which the α-helicity was estimated to be 30% (assuming no contribution to CD by β-sheet structure) according to the method of Morrisett, J. D., J. S. K. Davis, H. J. Pownall, and A. M. Gotto, Biochemistry 12:1290 (1973). […] Similarly, the value of [θ]222 for solutions of SCT-I over the same concentration range and under the same conditions also remains constant at -4,600 deg.cm^2 /dmol, leading to an estimate of 20% α-helix for this peptide. In 50% trifluoroethanol, a structure promoting solvent, both MCT-I and SCT-I were estimated to be 50% α-helical at a concentration of 5×10^-5 M, as was found by Brewer, H. D. and H. Edelhoch, J. Biol. Chem. 245:2402 (1970) for porcine calcitonin (PCT) in 50% 2-chloroethanol.
The circular dichroic spectra of MCT-II solutions buffered with 0.02M sodium phosphate at pH 7.4 and containing 0.16M KCl were measured from 250 nm to 200 nm using a Carey 60™ spectropolarimeter (Varian Instruments, Palo Alto. CA). The spectrometer cells used were washed with concentrated nitric acid, rinsed thoroughly with deionized water, then treated with a 1% aqueous polyethylene glycol (Mr 15K-20K) solution for 1 hr and finally rinsed with water before using. The molar ellipticities obtained from the circular dichroic spectra of MCT-II from 240 nm to 204 nm were fitted by a linear combination of three different basis functions derived from the spectra described by Greenfield, N. and G. D. Fasman, Biochem. 8:4108(1969) for α-helix, β-sheet, and random coil structure. […] Since there was no significant contribution to the spectrum from β-sheet structure, we used the mean residue molar ellipticity at 222 nm, [ θ]222, to estimate changes in α-helical structure (Morrisett et al., supra). The results are given in FIG. 3; each data point represents the mean from two experiments. […] [θ]222 for the monomer was -5,200 deg.cm^2 /dmol (20% α-helix) and -10,475 deg.cm^2 /dmol (35% α-helix) for the trimer. […] This dissociation constant corresponds to a 4.5 kcal/mol of stabilization energy per monomer for trimerization. Under similar conditions and over the same concentration range [θ]222 for MCT-I and SCT-I remained constant at -7,800 deg.cm^2 /dmol and -4,600 deg.cm^2 /dmol, respectively.

[2] = target: T1, brain receptors (calcitonin receptors, crude rat brain membranes) (Rattus norvegicus, UniProt P32214); details: tubes pretreated with peptide, 30 min at 4° C.
T1 sequence (P32214 25-516): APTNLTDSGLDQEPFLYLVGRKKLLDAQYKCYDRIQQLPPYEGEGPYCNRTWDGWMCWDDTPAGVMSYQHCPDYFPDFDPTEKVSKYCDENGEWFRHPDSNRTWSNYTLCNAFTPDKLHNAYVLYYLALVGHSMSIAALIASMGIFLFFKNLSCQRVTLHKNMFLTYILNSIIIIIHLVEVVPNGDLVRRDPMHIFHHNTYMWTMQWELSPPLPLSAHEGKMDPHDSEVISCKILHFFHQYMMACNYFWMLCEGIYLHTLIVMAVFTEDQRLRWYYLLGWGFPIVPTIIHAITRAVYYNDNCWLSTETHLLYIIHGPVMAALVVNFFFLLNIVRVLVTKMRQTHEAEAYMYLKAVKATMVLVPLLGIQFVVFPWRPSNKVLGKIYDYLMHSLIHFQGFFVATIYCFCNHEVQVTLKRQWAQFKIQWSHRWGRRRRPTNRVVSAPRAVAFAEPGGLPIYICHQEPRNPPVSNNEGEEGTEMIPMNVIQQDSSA
Method: Crude rats brain membranes were prepared as described by Nakamuta et al., supra, using 250-300 gm male Sprague-Dawley rats (Charles River Breeding Laboratories). Membranes were either used immediately or stored at -80° C. for no more than three days. Crude rat kidney membranes used for binding studies and adenylate cyclase assays were prepared as described by Schwartz, K. E., R. C. […] The dissected kidney cortices were first homogenized briefly with a Polytron™ (Brinkman Instruments) at low speed ("5") before complete homogenization with a loose-fitting Wheaton Dounce homogenizer (American Scientific Products, MacGaw Park, IL, pestle "B"). […] All preparations of kidney membranes were carried out at 4° C. and the membranes were used immediately for binding studies or adenylate cyclase assays.
The mixture was aspirated after a 1 hr incubation and these tubes were reused for all experiments, one set for brain membrane binding experiments and one set for kidney membrane binding experiments. […] Incubations were continued for 30 min at 4° C. (brain membranes) or 40 min at 21° C. (kidney membranes), and then stopped by centrifuging the tubes at 13,000 rpm for 5 min on a Beckman Microfuge II™ (Beckman Instruments). […] Radioactivity in each tip was quantitated using a Beckman Gamma 5500™ counter (Beckman Instruments).

[3] = tested on: rat kidney adenylate cyclase; experiment: Peptide stimulation of adenylate cyclase activity in crude kidney cortical membranes; type: biochemical; details: 10 min at 37° C.
Method: Crude rats brain membranes were prepared as described by Nakamuta et al., supra, using 250-300 gm male Sprague-Dawley rats (Charles River Breeding Laboratories). Membranes were either used immediately or stored at -80° C. for no more than three days. Crude rat kidney membranes used for binding studies and adenylate cyclase assays were prepared as described by Schwartz, K. E., R. C. Orlowski and R. Marcus, Endocrinology 108:831 (1981) with a minor modification. The dissected kidney cortices were first homogenized briefly with a Polytron™ (Brinkman Instruments) at low speed ("5") before complete homogenization with a loose-fitting Wheaton Dounce homogenizer (American Scientific Products, MacGaw Park, IL, pestle "B"). Protein concentrations were determined using Coomassie Brilliant Blue G-250 (Sedmak, J. J. and S. E. Grossberg, Anal. Biochem. 83:544 (1977)) and crystallized BSA (Sigma Chemical Co., St. Louis, MO) as the standard. All preparations of kidney membranes were carried out at 4° C. and the membranes were used immediately for binding studies or adenylate cyclase assays.
Peptide stimulation of adenylate cyclase activity in crude kidney cortical membranes was measured using methods described by Marcus, R. and G. D. Aurbach, Biochim. Biophys. Acta 242:410 (1971). […]

[4] = target: T2, calcitonin receptors (brain particulate fraction) (Rattus norvegicus, UniProt P32214)
T2 sequence (P32214 25-516): T1 sequence (P32214 25-516)
Description: Fractions from the single symmetrical peak which was eluted with this buffer were combined, adjusted to pH 7.5, and frozen in small aliquots until needed. The specific activity of the radioiodinated peptide was ~160 μCi/μg. […] Each point represents the mean of three triplicate determinations.

SMILES	Stabilization energy per monomer for trimerization [1] [kcal/mol]	α-helix of the monomer ([1]; monomer) [%]	Dissociation constant (Kd) for the oligomer ([1]; monomer/trimer equilibrium)	[θ]222 for the monomer ([1]; monomer, 0.02M sodium phosphate pH 7.4, 0.16M KCl)	α-helix of the trimer ([1]; trimer) [%]	[θ]222 for the trimer ([1]; trimer, 0.02M sodium phosphate pH 7.4, 0.16M KCl)	IC50 for brain receptors, calculated from theoretical curves fitted to the data [2] [nM]	Stimulation of adenylate cyclase over basal activity [3]	α-helicity estimated from [θ]222 ([1]; 0.02M sodium phosphate, 0.16M KCl, pH 7.4) [%]	Mean residue molar ellipticity at 222 nm, [θ]222 ([1]; 0.02M sodium phosphate, 0.16M KCl, pH 7.4, constant from 10^-7 M to 10^-4 M)	α-helicity in 50% trifluoroethanol ([1]; 5×10^-5 M peptide) [%]	IC50 [4] [nM]
CC(C)C[C@H](NC(=O)[C@H](CCCCN)NC(=O)[C@H](CCC(N)=O)NC(=O)[C@H](CC(C)C)NC(=O)[C@H](CCC(N)=O)NC(=O)[C@H](CCC(N)=O)NC(=O)[C@H](CC(C)C)NC(=O)[C@H](CC(C)C)NC(=O)[C@@H]1CSSC[C@H](N)C(=O)N[C@@H](CO)C(=O)N[C@@H](CC(N)=O)C(=O)N[C@@H](CC(C)C)C(=O)N[C@@H](CO)C(=O)N[C@@H]([C@@H](C)O)C(=O)N1)C(=O)N[C@@H](CC(C)C)C(=O)N[C@@H](CCC(N)=O)C(=O)N[C@@H](CCCCN)C(=O)N[C@@H](CC(C)C)C(=O)N[C@@H](CCCCN)C(=O)N[C@@H](CCC(N)=O)C(=O)N[C@@H](Cc1ccc(O)cc1)C(=O)N1CCC[C@H]1C(=O)N[C@@H](CCCNC(=N)N)C(=O)N[C@H](C(=O)N[C@@H](CC(N)=O)C(=O)N[C@H](C(=O)NCC(=O)N[C@@H](CO)C(=O)NCC(=O)N[C@H](C(=O)N1CCC[C@H]1C(N)=O)[C@@H](C)O)[C@@H](C)O)[C@@H](C)O [MCT-II] (H-CSNLSTCLLQQLQKLLQKLKQYPRTNTGSGTP-NH2; disulfide 1-7; N-terminus assumed)	4.5	20	5.06×10^-11 M^2	-5,200 deg.cm^2 /dmol	35	-10,475 deg.cm^2 /dmol	0.6	stimulated adenylate cyclase over basal activity				
CC(C)C[C@@H]1NC(=O)[C@H](CC(N)=O)NC(=O)CNC(=O)[C@@H](N)CSSC[C@@H](C(=O)N[C@@H](CC(C)C)C(=O)N[C@@H](CC(C)C)C(=O)N[C@@H](CCC(N)=O)C(=O)N[C@@H](CCC(N)=O)C(=O)N[C@@H](Cc2c[nH]c3ccccc23)C(=O)N[C@@H](CCC(N)=O)C(=O)N[C@@H](CCCCN)C(=O)N[C@@H](CC(C)C)C(=O)N[C@@H](CC(C)C)C(=O)N[C@@H](CCC(N)=O)C(=O)N[C@@H](CCCCN)C(=O)N[C@@H](CC(C)C)C(=O)N[C@@H](CCCCN)C(=O)N[C@@H](CCC(N)=O)C(=O)N[C@@H](CC(C)C)C(=O)N2CCC[C@H]2C(=O)N[C@@H](CCCNC(=N)N)C(=O)N[C@H](C(=O)N[C@@H](CC(N)=O)C(=O)N[C@H](C(=O)NCC(=O)N[C@@H](CO)C(=O)NCC(=O)N[C@H](C(=O)N2CCC[C@H]2C(N)=O)[C@@H](C)O)[C@@H](C)O)[C@@H](C)O)NC(=O)[C@H]([C@@H](C)O)NC(=O)[C@H](CO)NC1=O [MCT-I] (H-CGNLSTCLLQQWQKLLQKLKQLPRTNTGSGTP-NH2; disulfide 1-7)									30	-7,800 deg.cm^2 /dmol	50	17

Source: patent US4663309A, “Novel peptide hormones with calcitonin-like activity” (University Patents, Inc., priority 1985, dated 1987)
